Experimental data published in US6444878B1, “Method of plant selection using glucosamine-6-phosphate deaminase” (Danisco A/S, priority 1997, dated 2002).
Structures can show the parent of a compound that is named as a salt. Where two headings read alike, the source gives them in different places.

Assays:
[1] = test system: non-transgenic guar cotyledons; type: cell-based; details: glucosamine 3.0 g/l
Method: In order to establish the toxicity of glucosamine to guar explants, a dose-response curve with glucosamine concentrations ranging from 0 to 5.0 g/l was made using non-transgenic guar cotyledons as explants. The effect on shoot formation on the explants was used to determine the toxicity of glucosamine (FIG. 20).
The guar explants were obtained as follows. Guar seeds were sterilized in a 2.5% sodium hypochlorite solution at pH 7.0 added two drops of Tween 80 pr 100 ml solution. The seeds were stirred for 25 minutes in this solution and then washed five times with sterile water. Seeds were sown on germination medium (4.43 g/l MSMO (Sigma M6899), 20 g/l sucrose, 8.0 g/l agar, pH adjusted to 5.8 with KOH) and placed at 25° C. for 11-13 days at a 12 h/12 h day/night regime.
The cotyledons including about 2 mm of hypocotyl were excised from the seedlings and were used as explants for this experiment as well as for transformation experiments. The cotyledons were placed on selection medium containing various concentrations of glucosamine.
0-5 g/l D-glucosamine, HCl (according to the experiment)
After three weeks, the percentage of explants forming shoots on the various glucosamine containing media were determined and the results are given in FIG. 20.
In order to be able to find appropriate selection conditions, some factors affecting the toxicity of glucosamine were studied. Initially, sucrose was tested at various concentrations (5-40 g/l) in the selection medium. […] It is expected that other saccharides such glucose, fructose, maltose, mannose etc may also affect the effect of glucosamine.
Next, the effect of the concentration of the Gamborg B5 salts in the selection medium was tested in the presence of glucosamine (3.0 g/l). We investigated the use of these salts with a view to decreasing the carbon content of the medium.

[2] = test system: guar cotyledonary explants transformed with nagB; assay: Selection of transgenic guar shoots on glucosamine selection medium, GUS histochemical assay; type: cell-based, Cyamopsis tetragonoloba
Method: Transformation of guar cotyledonary explants was performed according to Joersbo and Okkels (PCT/DK95/00221) using Agrobacterium tumefaciens LBA4404 harbouring the plasmid shown in FIG. 10. Selection of transgenic shoots was accomplished using the above-mentioned selection medium with various concentrations of glucosamine, sucrose and Garnborg B5 salts. After four weeks the shoots were harvested and all explants were transferred to fresh selection medium (same composition) and after another four weeks of selection the last shoots were harvested. After harvest, the shoots were analysed for β-glucuronidase (GUS) activity using the histochemical assay (Jefferson et al, 1987, EMBO J 6: 3901-3907).

[3] = test system: Solanum tuberosum cv Saturna explants; type: cell-based; details: for Number of transformed areas per explant / Number of transgenic shoots / Transformation frequency (number transgenic shoots/started explants) / Transformation frequency (%) (Number transgenic shoots/started explants): sucrose 7.5 g/l
Method: The disarmed Agrobacterium tumefaciens strain LBA 4404, containing the helper vir plasmid pRAL4404 (Hoekema et al, 1983 Nature 303 pp 179-180), was cultured on YMB agar (K2HPO4.3H2O 660 mg l^−1, MgSO4 200 mg l^−1, NaCl 100 mg l^−1, mannitol 10 g l^−1, yeast extract 400 mg l^−1, 0.8% w/v agar, pH 7.0) containing 100 mg l^−1 rifampicin and 500 mg l^−1 streptomycin sulphate. Transformation with pVICTOR IV GNG E35S nagB IV2 or pVICTOR IV GNG rbc nagB IV2 or pVICTOR IV GNG E35 S nagB was accomplished using the freeze-thaw method of Holters et al (1978 Mol Gen Genet 163 181-187) and transformants were selected on YMB agar containing 100 mg l^−1 rifampicin and 500 mg l^−1 streptomycin, and 50 mg l^−1 gentamycin sulphate. Transformation with a control construct lacking the nagB gene was performed in the same manner.
Shoot cultures of Solanum tuberosum cv Saturna were maintained on LS agar containing Murashige Skoog basal salts (Sigma M6899) (Murashige and Skoog, 1965, Physiol Plant 15 473-497) with 2 μM silver thiosulphate, and nutrients and vitamins as described by Linsmaier and Skoog (1965 Physiol Plant 18 100-127). Cultures were maintained at 25° C. with a 16 h daily photoperiod. After approximately 40 days, subculturing was performed during and the shoots cut into mononodal segments of approximately 8 mm length.
Shoot cultures of approximately 40 days maturity (5-6 cm height) were cut into 8 mm internodal segments and/or leaves were cut off and wounded by making 24 small cuts over the midrib of the leaf. These were then placed into liquid LS-medium containing Agrobacterium tumefaciens transformed with pVICTOR IV GNG E35 S nagB IV2 or pVICTOR IV GNG rbc nagB IV2 or pVICTOR IV GNG E35S nagB (A660=0.5, pathlength 1 cm). Following incubation at room temperature for 30 minutes, the segments were dried by blotting on to sterile filter paper and transferred to LS agar (0.8% w/v containing 2 mg l^−1 2,4-D and 500 μg l^−1 trans-zeatin. The explants were covered with filter paper, moistened with LS medium, and covered with a cloth for three days at 25° C. Following this treatment, the segments can be washed with liquid LS medium containing 800 mg l^−1 carbenicillin, and then transferred on to LS agar (0.8% w/v) containing 1 mg l^−1 trans-zeatin, […] gibberellic acid (GA3), with sucrose (eg 7.5 g l^−1). This agar can optionally contain glucosamine (eg 2.5 g l^−1). The segments were sub-cultured to fresh substrate each […]. In 3 to 4 weeks, shoots develop from the segments and the formation of new shoots continued for 3-4 months.
The transgenic plants may be verified by performing a GUS assay on the cointroduced β-glucuronidase gene according to Hodal, L. et al. (Pl. Sci. (1992), 87: 115-122).

[4] = test system: natural plant cells; details: formed from milli-molar amounts of glucosamine; cited from earlier work
[5] = test system: glucosamine-6-phosphate deaminase encoded by nagB; assay: Conversion of GA6P to F6P by glucosamine-6-phosphate deaminase, allosteric effect; type: biochemical, E. coli; details: FIG. 3
Text: One aspect of the selection method of the present invention provides an additional advantageous feature. […] This surprising finding is in accordance with studies done with E. coli (Calcagno, M, et al (1984) Biochim Biophys Acta 787: 165-173). Thus, should any glucosamine be metabolised to NAGA and in turn eventually to NAG6P then that NAG6P would ensure conversion of GA6P to F6P by the enzyme glucosamine-6-phosphate deaminase or at least aid the conversion step. This is an advantageous feature of the highly preferred selection method of the present invention.

[6] = second table, glucosamine 1 g/l
[7] = second table, glucosamine 2.5 g/l
[8] = second table, glucosamine 5 g/l
[9] = second table, glucosamine 7.5 g/l
[10] = second table, glucosamine 10 g/l
[11] = glucosamine 2 g/l, NH4/NO3 1298 g/l
[12] = glucosamine 2.5 g/l, NH4/NO3 1189 g/l
[13] = glucosamine 3 g/l, NH4/NO3 1093 g/l

For N[C@H]1C(O)O[C@H](CO)[C@@H](O)[C@@H]1O (stereo partly drawn) [glucosamine, D-glucosamine, HCl], the “Shoot formation on guar explants (%)” value ([1]; Gamborg B5 salts in selection medium 1.6 g/l) was 6.2%, the “Shoot formation on guar explants (%)” value ([1]; Gamborg B5 salts in selection medium 2.4 g/l) was 9.1% and the “Shoot formation on guar explants (%)” value ([1]; Gamborg B5 salts in selection medium 3.2 g/l) was 17.4%. The “No of GUS-positive shoots” value ([2]; sucrose 10 g/l, glucosamine 2.5 g/l, B5-salts 3.2 g/l) was 2, the “No of GUS-positive shoots” value ([2]; sucrose 20 g/l, glucosamine 2.5 g/l, B5-salts 2.4 g/l) was 1 and the “No of GUS-positive shoots” value ([2]; sucrose 20 g/l, glucosamine 3.0 g/l, B5-salts 2.4 g/l) was 1. The “Effect of NH4NO3 content on toxicity of glucosamine” value [3] was “lowering the content of NH4NO3 makes the glucosamine less toxic”, the “Number of transformed areas per explant” value [3, 6] was 3.8 and the “Number of transgenic shoots” value [3, 6] was 1. For the same molecule, the “Transformation frequency (number transgenic shoots/started explants)” value [3, 6] was 2, the “Number of transformed areas per explant” value [3, 7] was 0 and the “Number of transgenic shoots” value [3, 7] was 0. The “Transformation frequency (number transgenic shoots/started explants)” value [3, 7] was 0, the “Number of transformed areas per explant” value [3, 8] was 0 and the “Number of transgenic shoots” value [3, 8] was 0. For the same molecule, the “Transformation frequency (number transgenic shoots/started explants)” value [3, 8] was 0, the “Number of transformed areas per explant” value [3, 9] was 0 and the “Number of transgenic shoots” value [3, 9] was 0. For the same molecule, the “Transformation frequency (number transgenic shoots/started explants)” value [3, 9] was 0, the “Number of transformed areas per explant” value [3, 10] was 0 and the “Number of transgenic shoots” value [3, 10] was 0. The “Transformation frequency (number transgenic shoots/started explants)” value [3, 10] was 0, the “Number of transformed areas per explant” value ([3]; glucosamine 2 g/l) was 0 and the “Transformation frequency (%) (Number transgenic shoots/started explants)” value ([3]; glucosamine 2 g/l) was 0%. For the same molecule, the “Number of transformed areas per explant” value [3, 11] was 0.025, the “Number of transgenic shoots” value [3, 11] was 0 and the “Transformation frequency (%) (Number transgenic shoots/started explants)” value [3, 11] was 0%. The “Number of transgenic shoots” value ([3]; glucosamine 2 g/l, NH4/NO3 1650 g/l) was 0, the “Number of transformed areas per explant” value ([3]; glucosamine 2.5 g/l) was 0 and the “Transformation frequency (%) (Number transgenic shoots/started explants)” value ([3]; glucosamine 2.5 g/l) was 0%. For the same molecule, the “Number of transformed areas per explant” value [3, 12] was 0, the “Number of transgenic shoots” value [3, 12] was 0 and the “Transformation frequency (%) (Number transgenic shoots/started explants)” value [3, 12] was 0%. For the same molecule, the “Number of transgenic shoots” value ([3]; glucosamine 2.5 g/l, NH4/NO3 1650 g/l) was 0, the “Number of transformed areas per explant” value ([3]; glucosamine 3 g/l) was 0 and the “Transformation frequency (%) (Number transgenic shoots/started explants)” value ([3]; glucosamine 3 g/l) was 0%. The “Number of transformed areas per explant” value [3, 13] was 0, the “Number of transgenic shoots” value [3, 13] was 0 and the “Transformation frequency (%) (Number transgenic shoots/started explants)” value [3, 13] was 0%. The “Number of transgenic shoots” value ([3]; glucosamine 3 g/l, NH4/NO3 1650 g/l) was 0.

In the case of N[C@H]1C(O)O[C@H](COP(=O)(O)O)[C@@H](O)[C@@H]1O (stereo partly drawn) [GA6P, glucosamine-6-phosphate], the “Toxicity to natural plant cells” value [4] is listed as “toxic to natural plant cells”.

For CC(=O)N[C@H]1C(O)O[C@H](COP(=O)(O)O)[C@@H](O)[C@@H]1O (stereo partly drawn) [NAG6P, N-acetyl glucosamine 6-phosphate], the “Effect on the conversion of GA6P to F6P by glucosamine-6-phosphate deaminase” value [5] was “positive effect (an allosteric effect)”.
